Test results: the Deep4Chem optical property database

Assay: solvent given as SMILES

Structure (SMILES): CC(C)(C)c1ccc2c(c1)c1cc(C(C)(C)C)ccc1n2-c1ccc(N(c2ccc(-c3ccc(-c4ccc(-c5ccc(-c6ccc(N(c7ccc(-n8c9ccc(C(C)(C)C)cc9c9cc(C(C)(C)C)ccc98)cc7)c7ccc(-n8c9ccc(C(C)(C)C)cc9c9cc(C(C)(C)C)ccc98)cc7)cc6)cc5)c5nsnc45)cc3)cc2)c2ccc(-n3c4ccc(C(C)(C)C)cc4c4cc(C(C)(C)C)ccc43)cc2)cc1
- absorption maximum (in ClCCl): 422 nm

Structure (SMILES): CCCCCCCCCCCCn1cccc1/C=C/c1cc(OCCCC)c(/C=C/c2cccn2CCCCCCCCCCCC)cc1OCCCC
- absorption maximum (in Cc1ccccc1): 411 nm

Structure (SMILES): CC(C)c1cc(C(C)C)c(-c2ccc(-n3c4ccccc4n4c5ccccc5nc34)nc2)c(C(C)C)c1
- absorption maximum (in Cc1ccccc1): 345 nm

Structure (SMILES): CC1(C)CC(=O)C2=C(C1)Oc1ccc3cc(O)ccc3c1C2c1ccccn1 (configuration not stated)
- absorption maximum (in C1CCOC1): 349 nm
- absorption maximum (in C1COCCO1): 347 nm
- absorption maximum (in CC#N): 349 nm
- absorption maximum (in CCCCCCC): 347 nm
- absorption maximum (in CCO): 349 nm
- absorption maximum (in CO): 349 nm
- absorption maximum (in O): 347 nm

Structure (SMILES): c1cnc(-c2c3ccccc3c(-c3ncccn3)c3ccccc23)nc1
- absorption maximum (in CCO): 389 nm
- absorption maximum (in ClCCl): 389 nm

Structure (SMILES): CC(C)(C)c1ccc(C2=C(c3ccc(-n4c5ccccc5c5ccccc54)cc3)S(=O)(=O)c3c2sc(-c2ccc(-n4c5ccccc5c5ccccc54)cc2)c3-c2ccc(C(C)(C)C)cc2)cc1
- absorption maximum (in C1CCOC1): 419 nm

Structure (SMILES): CCCCOC(=O)c1ccccc1-c1c2ccc(=[N+](CC)CC)cc-2oc2cc(N(CC)CC)ccc12
- absorption maximum (in CC#N): 555 nm
- absorption maximum (in CCO): 543 nm
- absorption maximum (in CN(C)C=O): 562 nm
- absorption maximum (in O): 558 nm

Structure (SMILES): CSc1ccc(/C=C/c2ccncn2)cc1
- absorption maximum (in ClCCl): 346 nm

Structure (SMILES): CCCCCCc1ccc(-n2c3c(c4c2c2c(n4-c4ccc(CCCCCC)cc4)-c4cccc(OC)c4NB2c2ccccc2)B(c2ccccc2)Nc2c(OC)cccc2-3)cc1
- absorption maximum (in Cc1ccccc1): 382 nm

Structure (SMILES): CCC1(CC)c2cc(-c3cccs3)ccc2-c2c1c1c(c3c2C(CC)(CC)c2cc(-c4cccs4)ccc2-3)C(CC)(CC)c2cc(-c3cccs3)ccc2-1
- absorption maximum (in C1CCOC1): 340 nm

Structure (SMILES): CC1(C)c2ccccc2N(c2ccc(-c3ccc4c(c3)C(=O)c3ccc(-c5ccc(N6c7ccccc7C(C)(C)c7ccccc76)cc5)cc3C4=O)cc2)c2ccccc21
- absorption maximum (in Cc1ccccc1): 446 nm

Structure (SMILES): CC(C)(C)c1ccc2c3ccccc3c3cncnc3c2c1
- absorption maximum (in ClCCl): 348 nm

Structure (SMILES): CC1(C)c2ccccc2N(c2ccc3c(c2)C(c2ccccc2)(c2ccccc2)c2cc(N4c5ccccc5C(C)(C)c5ccccc54)ccc2S3(=O)=O)c2ccccc21
- absorption maximum (in Cc1ccccc1): 364 nm

Structure (SMILES): Cn1nc(-c2ccc(C(F)(F)F)cc2)cc1-c1ccccc1
- absorption maximum (in ClCCl): 260 nm

Structure (SMILES): CCCCCCCCN1C(=O)c2ccc3c4c(-c5ccc(-n6c7ccccc7c7ccccc76)cc5)cc5c6c(ccc(c7c(-c8ccc(-n9c%10ccccc%10c%10ccccc%109)cc8)cc(c2c37)C1=O)c64)C(=O)N(CCCCCCCC)C5=O
- absorption maximum (in ClC(Cl)Cl): 561 nm

Structure (SMILES): CCCCC(CC)COc1ccc2nc(-c3ccc(-c4ccc(OC)cc4)s3)sc2c1 (configuration not stated)
- absorption maximum (in ClCCl): 365 nm

Structure (SMILES): CCCCCCCC1=C(C)C(=O)n2c1cc1[nH]c(C(=O)OC)c(C)c1c2=O
- absorption maximum (in C1CCCCC1): 393 nm
- absorption maximum (in CO): 397 nm
- absorption maximum (in CS(C)=O): 397 nm
- absorption maximum (in ClC(Cl)Cl): 396 nm
- absorption maximum (in c1ccccc1): 395 nm

Structure (SMILES): COc1ccccc1-c1nc2c3ccccc3c3ccccc3c2o1
- absorption maximum (in Cc1ccccc1): 364 nm

Structure (SMILES): O=[N+]([O-])c1ccc2c(c1)-c1c3c(c4c([n+]1[B-](F)(F)O2)CCc1ccccc1-4)CCc1ccccc1-3
- absorption maximum (in ClCCl): 343 nm

Structure (SMILES): C(S/C=C/c1ccc(/C=C/SC=C2CCCCCCC2)cc1)=C1CCCCCCC1
- absorption maximum (in ClCCl): 355 nm

Structure (SMILES): O=C1CCCC2=C1CC1=C(CCCC1=O)N2NC(=O)c1ccc(O)cc1
- absorption maximum (in CC#N): 368 nm
- absorption maximum (in CC(C)=O): 368 nm
- absorption maximum (in CCCCCO): 376 nm
- absorption maximum (in CO): 376 nm
- absorption maximum (in ClC(Cl)Cl): 368 nm
- absorption maximum (in ClCCl): 372 nm

Structure (SMILES): c1cc2ccc3ccc(OP4(Oc5ccc6ccc7cccc8ccc5c6c78)=NP(Oc5ccc6ccc7cccc8ccc5c6c78)(Oc5ccc6ccc7cccc8ccc5c6c78)=NP(Oc5ccc6ccc7cccc8ccc5c6c78)(Oc5ccc6ccc7cccc8ccc5c6c78)=N4)c4ccc(c1)c2c34
- absorption maximum (in ClCCl): 343 nm

Structure (SMILES): N#Cc1nc2cnc(N)nc2n1Cc1ccccc1
- absorption maximum (in C1COCCO1): 331 nm
- absorption maximum (in CC#N): 330 nm
- absorption maximum (in CO): 333 nm
- absorption maximum (in ClCCl): 326 nm
- absorption maximum (in O): 331 nm

Structure (SMILES): CC(C)=CC(=O)c1cc2c(cc1F)NC(C)(C)CC2=O
- absorption maximum (in CC#N): 356 nm

Structure (SMILES): CCCCCCc1ccc2c3c(ccc2c1)O[B-](c1ccccc1)(c1ccccc1)[N+](c1cc([N+]2=Cc4c(ccc5cc(CCCCCC)ccc45)O[B-]2(c2ccccc2)c2ccccc2)cc([N+]2=Cc4c(ccc5cc(CCCCCC)ccc45)O[B-]2(c2ccccc2)c2ccccc2)c1)=C3
- absorption maximum (in C1CCOC1): 445 nm
- absorption maximum (in CC#N): 440 nm
- absorption maximum (in Cc1ccccc1): 453 nm
- absorption maximum (in ClCCl): 450 nm

Structure (SMILES): O=Cc1ccc(-c2cccc(-c3nc4ccccc4s3)c2O)s1
- absorption maximum (in CCO): 367 nm
- absorption maximum (in ClCCl): 370 nm

Structure (SMILES): Cc1ccc(-c2cc(/C=C/c3ccc(N(c4ccccc4)c4ccccc4)cc3)c(-c3ccc(C)cc3)cc2/C=C/c2ccc(N(c3ccccc3)c3ccccc3)cc2)cc1
- absorption maximum (in ClCCl): 410 nm

Structure (SMILES): COc1c(-c2ccc(N(C)C)cc2)oc2ccccc2c1=O
- absorption maximum (in C1CCCCC1): 361 nm
- absorption maximum (in CC#N): 375 nm
- absorption maximum (in CCOC(C)=O): 372 nm

Structure (SMILES): C#Cc1ccc2cc(/C=C/C(=O)OCC)c(=O)oc2c1
- absorption maximum (in CCO): 360 nm

Structure (SMILES): COC1=[N+]2C(=C(c3ccccc3)c3ccc(OC)n3[B-]2(F)F)C=C1
- absorption maximum (in CC#N): 510 nm
- absorption maximum (in CCCCCC): 513 nm
- absorption maximum (in CCOC(C)=O): 512 nm
- absorption maximum (in CO): 511 nm
- absorption maximum (in ClCCl): 515 nm

Structure (SMILES): O=S(=O)(c1ccc(-c2ccc(-c3nc4c5ccccc5c5ccccc5c4n3-c3ccccc3)cc2)cc1)c1ccc(-c2ccc(-c3nc4c5ccccc5c5ccccc5c4n3-c3ccccc3)cc2)cc1
- absorption maximum (in C1CCOC1): 368 nm
- absorption maximum (in CC#N): 368 nm
- absorption maximum (in CC(C)=O): 368 nm
- absorption maximum (in CC(C)OC(C)C): 368 nm
- absorption maximum (in CCCCCC): 368 nm
- absorption maximum (in CCCCOCCCC): 368 nm
- absorption maximum (in CCN(CC)CC): 368 nm
- absorption maximum (in CCOC(C)=O): 368 nm
- absorption maximum (in CCOCC): 368 nm
- absorption maximum (in CN(C)C=O): 368 nm
- absorption maximum (in ClC(Cl)Cl): 368 nm
- absorption maximum (in ClCCl): 368 nm

Structure (SMILES): O=[N+]([O-])c1ccccc1O
- absorption maximum (in CO): 338 nm
- absorption maximum (in O): 411 nm

Structure (SMILES): CC1(C)c2ccccc2N(c2ccc(-c3nc4cc(C#N)c(C#N)cc4nc3-c3ccc(N4c5ccccc5C(C)(C)c5ccccc54)cc3)cc2)c2ccccc21
- absorption maximum (in Cc1ccccc1): 454 nm

Structure (SMILES): CN(C)c1ccc(C(=Cc2ccc(/C=C(\C#N)c3ccccc3)cc2)c2ccc(N(C)C)cc2)cc1
- absorption maximum (in C1CCOC1): 436 nm

Structure (SMILES): C=Cc1ccc(OC)cc1
- absorption maximum (in C1CCCCC1): 302 nm

Structure (SMILES): c1ccc2c(c1)c1ccccc1c1[nH]c(-c3ccc(-c4nc5c6ccccc6c6ccccc6c5[nH]4)cc3)nc21
- absorption maximum (in C1CCOC1): 411 nm
- absorption maximum (in CC#N): 412 nm
- absorption maximum (in CCO): 410 nm
- absorption maximum (in CS(C)=O): 410 nm
- absorption maximum (in ClCCl): 413 nm

Structure (SMILES): COc1ccc(C2=CC3=C(c4c(C)cc(C)cc4C)c4cc(-c5ccc(OC)cc5)c(-c5ccc(OC)cc5)n4[B-](F)(F)[N+]3=C2c2ccc(OC)cc2)cc1
- absorption maximum (in C1CCCCC1): 621 nm
- absorption maximum (in C1CCOC1): 621 nm
- absorption maximum (in CC#N): 608 nm
- absorption maximum (in Cc1ccccc1): 625 nm
- absorption maximum (in ClCCl): 616 nm

Structure (SMILES): CCC(CC)COC1=CC2=C3c4cc(OCC(CC)CC)c(-c5cccs5)n4[B-](F)(F)[n+]4c3n(c3cc(C(C)(C)C)ccc34)[B-](F)(F)[N+]2=C1c1cccs1
- absorption maximum (in C1CCOC1): 792 nm
- absorption maximum (in ClCCl): 791 nm

Structure (SMILES): N#Cc1c(N2CCCC2)cc(-c2ccccc2)c2c1-c1ccccc1C2
- absorption maximum (in C1CCOC1): 353 nm

Structure (SMILES): C(=C\c1cnc2ccccc2n1)/c1ccc(N(c2ccccc2)c2ccccc2)cc1
- absorption maximum (in C1CCOC1): 423 nm
- absorption maximum (in CC#N): 425 nm
- absorption maximum (in CS(C)=O): 436 nm
- absorption maximum (in ClCCl): 427 nm

Structure (SMILES): Cc1cn(C)c(=O)nc1-n1cncn1
- absorption maximum (in O): 323 nm

Structure (SMILES): CC1CCC(=CS/C=C/c2ccc(/C=C/SC=C3CCC(C)CC3)cc2)CC1 (configuration not stated)
- absorption maximum (in ClCCl): 350 nm

Structure (SMILES): Cc1cc(C)c(B(c2c(C)cc(C)cc2C)c2c(C)cc(-n3c4ccc(N(c5ccccc5)c5ccccc5)cc4c4cc(N(c5ccccc5)c5ccccc5)ccc43)cc2C)c(C)c1
- absorption maximum (in Cc1ccccc1): 387 nm

Structure (SMILES): CCCCCc1c(Oc2cc(O)cc(CCC(=O)CC)c2C(=O)OC)c(OC)cc(O)c1C(=O)O
- absorption maximum (in ClC(Cl)Cl): 312 nm

Structure (SMILES): C(=C\c1cccc2ccccc12)/c1ccc(-c2nnc(-c3ccc(-c4cc5ccccc5s4)cc3)o2)cc1
- absorption maximum (in CC#N): 349 nm
- absorption maximum (in CC(C)=O): 350 nm
- absorption maximum (in CCCCCCCC): 354 nm
- absorption maximum (in CCCCCCCCCCO): 360 nm
- absorption maximum (in CCCCCCCCO): 359 nm
- absorption maximum (in CCCCCO): 356 nm
- absorption maximum (in CCCO): 342 nm
- absorption maximum (in CN(C)C=O): 357 nm
- absorption maximum (in CO): 351 nm
- absorption maximum (in CS(C)=O): 360 nm

Structure (SMILES): CN(C)c1ccc(/C=C/c2cc(/C=C/c3ccc(N(C)C)cc3)nc(/C=C/c3ccccc3)n2)cc1
- absorption maximum (in ClCCl): 423 nm

Structure (SMILES): CCCCCCCCOc1ccc2c3c(c4ccc(OCCCCCCCC)cc4c2c1)C(C)(C)c1ccccc1-3
- absorption maximum (in C1CCCCC1): 388 nm

Structure (SMILES): c1ccc(N(c2ccccc2)c2ccc(-c3ccc4c(c3)C3(c5cc(-c6ccc(N(c7ccccc7)c7ccccc7)cc6)ccc5S4)c4ccccc4-c4ccccc43)cc2)cc1
- absorption maximum (in ClCCl): 356 nm

Structure (SMILES): CCCN1C(=O)C(=CC=CC=C2Oc3ccccc3N2CCCS(=O)(=O)[O-])C(=O)N(CCC)C1=S
- absorption maximum (in C1COCCO1): 565 nm
- absorption maximum (in CC(C)=O): 559 nm
- absorption maximum (in CCCCO): 562 nm
- absorption maximum (in CCCO): 561 nm
- absorption maximum (in CCO): 558 nm
- absorption maximum (in CO): 554 nm
- absorption maximum (in ClC(Cl)Cl): 568 nm
- absorption maximum (in O): 530 nm
